Laboratory results: PubChem BioAssay (NCI)
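Cells were grown in 96-well plates and exposed to each compound for 48 hours at five concentrations; endpoints were interpolated linearly between bracketing concentrations, or set to the highest concentration if not reached. GI50: concentration for 50% inhibition of growth. TGI: total growth inhibition.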

How the values were obtained:
Assay in all cases: inhibition of tumour cell growth, NCI panel, 48 h
HCC-2998 colon = tested on: HCC-2998 colon
U251 CNS = tested on: U251 CNS
HL-60(TB) leukemia = tested on: HL-60(TB) leukemia
UACC-62 melanoma = tested on: UACC-62 melanoma
OVCAR-5 ovarian = tested on: OVCAR-5 ovarian
OVCAR-4 ovarian = tested on: OVCAR-4 ovarian
HOP-62 NSCLC = tested on: HOP-62 NSCLC
CCRF-CEM leukemia = tested on: CCRF-CEM leukemia
RXF 393 renal = tested on: RXF 393 renal
A549 NSCLC = tested on: A549 NSCLC

SMILES | TGI (HCC-2998 colon) | TGI (U251 CNS) | TGI (HL-60(TB) leukemia) | TGI (UACC-62 melanoma) | TGI (OVCAR-5 ovarian) | TGI (OVCAR-4 ovarian) | TGI (HOP-62 NSCLC) | TGI (CCRF-CEM leukemia) | TGI (RXF 393 renal) | TGI (A549 NSCLC) | GI50 (HCC-2998 colon) | GI50 (U251 CNS) | GI50 (HL-60(TB) leukemia) [µM] | GI50 (UACC-62 melanoma) | GI50 (OVCAR-5 ovarian) | GI50 (OVCAR-4 ovarian) | GI50 (HOP-62 NSCLC) | GI50 (CCRF-CEM leukemia) [µM] | GI50 (RXF 393 renal) | GI50 (A549 NSCLC) [µM]
C1OCC2S[C@@H]3COCO[C@@H]3C2O1 (stereo partly specified) | > 100 µM | > 100 µM | > 100 µM | > 100 µM | > 100 µM | > 100 µM | > 100 µM | > 100 µM | > 100 µM | > 100 µM |  |  |  |  |  |  |  |  |  | 
CO[C@H](C(=O)[C@@H](O)[C@@H](C)O)[C@@H]1Cc2cc3cc(O[C@H]4C[C@@H](O[C@H]5C[C@@H](O)[C@H](O)C(C)O5)[C@H](O)C(C)O4)c(C)c(O)c3c(O)c2C(=O)[C@H]1O[C@H]1C[C@@H](O[C@H]2C[C@@H](O[C@H]3C[C@@H](OC)[C@H](O)C(C)O3)[C@@H](O)C(C)O2)C(O)(O)C(C)O1 (stereo partly specified) | 5.09 µM | > 25 µM | > 25 µM | 0.0945 µM | > 25 µM | > 11.7 µM | > 25 µM | > 25 µM | 0.306 µM | > 25 µM | 0.47 µM | 0.0329 µM | 2.94 | 0.00601 µM | 0.376 µM | 0.404 µM | 0.0513 µM | 0.138 | 0.0525 µM | 0.0843
CC[P+](C)(Cc1ccccc1)c1ccccc1 (stereo unspecified) | > 100 µM | > 100 µM | > 100 µM | > 100 µM | > 100 µM | > 100 µM | > 100 µM | > 100 µM | > 100 µM | > 100 µM |  |  |  |  |  |  |  |  |  | 
Cc1nc2ccc(CN(C)c3ccc(C(=O)N[C@@H](CCC(=O)O)C(=O)O)s3)cc2c(=O)[nH]1 | > 100 µM | > 100 µM | > 100 µM | > 100 µM | > 100 µM | > 100 µM | > 100 µM | > 100 µM | > 100 µM | > 100 µM | < 0.01 µM |  |  |  |  |  |  | 0.027 | > 21.7 µM | 
CC1CC2C3CC(F)C4=CC(=O)C=CC4(C)C3(F)C(O)CC2(C)C1(O)C(=O)COC(=O)C(C)(C)C (stereo unspecified) | > 100 µM | > 100 µM | > 100 µM | > 100 µM | > 100 µM | > 100 µM | > 100 µM | > 100 µM | 76.6 µM | > 100 µM |  |  |  |  |  |  |  |  |  | 
CC1=C(C(=O)NCc2ccccc2)C(c2ccc(C3C(C(=O)NCc4ccccc4)=C(C)NC(C)=C3C(=O)NCc3ccccc3)cc2)C(C(=O)NCc2ccccc2)=C(C)N1 | 35.3 µM | 14.4 µM | 44.7 µM | 22.2 µM | 39.9 µM | 31.3 µM | 41.1 µM | > 100 µM | 33.4 µM | 61.3 µM |  |  |  |  |  |  |  |  |  | 
Cc1ccccc1NC(=S)Nc1ccccn1 | > 100 µM | > 100 µM | > 100 µM | > 100 µM | > 100 µM | > 100 µM | > 100 µM | > 100 µM | > 100 µM | > 100 µM | > 100 µM | > 100 µM | > 100 | > 100 µM | > 100 µM | 72.5 µM | > 100 µM | > 100 | 13.9 µM | > 100
Nc1ccn(C2OC(CO)C(O)C2F)c(=O)n1 (stereo unspecified) | > 5000 µM | > 5000 µM |  | > 5000 µM | > 5000 µM | > 5000 µM | > 5000 µM |  | > 5000 µM | > 5000 µM | > 5000 µM | > 5000 µM | 189 | > 5000 µM | > 5000 µM | > 5000 µM | > 5000 µM | 1.67 | > 5000 µM | > 5000
C=C(Cn1c(=O)c2ccccc2c2ccccc21)c1ccc(C(=O)Nc2ccccc2N)cc1 | > 100 µM | > 100 µM |  | > 100 µM | > 100 µM | > 100 µM | > 100 µM | 4.13 µM | > 68.5 µM | > 100 µM | 31.1 µM | 16.3 µM | 0.188 | 24.1 µM | > 100 µM | 5.22 µM | 40.9 µM | 0.466 | 5.21 µM | > 48.3
N#C/C(=C\c1ccccc1O)C(N)=O | > 100 µM | > 100 µM | 43.3 µM | > 100 µM | > 100 µM | > 100 µM | > 100 µM | 83.1 µM | 87.5 µM | > 100 µM |  |  |  |  |  |  |  |  |  | 
C=C1C(=O)O[C@H]2[C@H]1CC/C(CNC(=O)/C=C/c1ccc(Br)cc1)=C\CC[C@@]1(C)O[C@@H]21 | 3 µM | 3.09 µM | 7.28 µM | 2.78 µM | 3.75 µM | 2.96 µM | 6.87 µM | 4.59 µM | 1.4 µM | 8.72 µM | 1.56 µM | 1.46 µM | 0.744 | 1.34 µM | 1.7 µM | 1.37 µM | 2.2 µM | 0.354 | 0.26 µM | 2.43
COc1ccc2c(c1)C(=O)c1c-2n(CCCN)c(=O)c2ccccc12 | 1.18 µM | 0.271 µM |  | 1.21 µM | 1.18 µM | 1.61 µM | 0.0942 µM | < 0.0356 µM | 0.91 µM | 0.0689 µM | 0.164 µM | < 0.0173 µM | < 0.01 | 0.166 µM | 0.142 µM | 0.133 µM | < 0.0152 µM | < 0.0129 | 0.137 µM | < 0.01
CC/C(Cc1ccccc1)=C(\c1ccc(OCCN2CCCCCC2)cc1)c1ccc(OC(=O)NCc2ccccc2)cc1 | 8.05 µM | 5.48 µM | 3.44 µM | 13 µM | 12.8 µM | 6.03 µM | 14.5 µM | 5.72 µM | 3.35 µM | 8.64 µM | 2.01 µM | 1.77 µM | 1.18 | 6.38 µM | 6.2 µM | 1.61 µM | 7.02 µM | 1.56 | 1.31 µM | 2.48
COc1ccc(C#Cc2ccccc2C#CCCCCO)cc1 | 33.3 µM | 25.3 µM | 44.7 µM | 29.8 µM | 37.6 µM | 28.1 µM | 45.4 µM | 53.8 µM | 33.6 µM | 33.7 µM | 17.9 µM | 12.7 µM | 23.7 | 15.9 µM | 18.7 µM | 11.2 µM | 28.6 µM | 23.5 | 16 µM | 18.2
O=S(=O)(Nc1ncccn1)c1ccc(N=Nc2ccc(O)c3ncccc23)cc1 | 29 µM | 30.4 µM | 32.1 µM | 14 µM | 89.2 µM | 71.7 µM | 76.1 µM | 24.8 µM | 29.2 µM | 29 µM | 12.2 µM | 4.71 µM | 6.34 | 3.4 µM | 29.7 µM | 4.51 µM | 9.15 µM | 3.29 | 9.95 µM | 5.46
CC1=CC2CC(C)=C(CC[C@]3(C)CC[C@H]([C@@H](C)C(=O)O)OO3)C(C)(C)C2CC1 (stereo partly specified) | 0.818 µM | 1.01 µM | 0.106 µM | 2.81 µM | 3.8 µM | 0.971 µM | 3.41 µM | 0.493 µM | 1.09 µM | 1.06 µM |  |  |  |  |  |  |  |  |  | 
O=[N+]([O-])c1ccc(Nc2ccccc2-c2ccccc2)c2nonc12 | 27.2 µM | 29.3 µM | 51.1 µM | 18 µM | 62.9 µM | > 100 µM | 42.7 µM | > 72.2 µM | 28.7 µM | > 86.8 µM | 11.7 µM | 13.4 µM | 17.8 | 4.44 µM | 22.4 µM | 9.5 µM | 17.4 µM | 15.6 | 13.7 µM | 16.7
COc1cccc2c1C(=O)c1c(O)c3c(c(O)c1C2=O)CC(O)(C(C)=O)CC3OC1CC(N)C(O)C(C)O1 (stereo unspecified) | 0.912 µg/mL | 1.84 µg/mL | 0.0356 µg/mL | 0.0734 µg/mL | 3.46 µg/mL | 0.692 µg/mL | 2.08 µg/mL | 0.324 µg/mL | 1.48 µg/mL | 1.85 µg/mL | 0.243 µg/mL | 0.0151 µg/mL |  | 0.0157 µg/mL | 0.0674 µg/mL | 0.0742 µg/mL | 0.0221 µg/mL |  | 0.263 µg/mL | 
CC1=CCC[C@@]2(C)C(CC[C@@H]2C(C)/C=C/C(C)C)c2ccc(cc2C(=O)O)C[C@@H](O)CC1 (stereo partly specified) | 23.5 µM | 16 µM | 31.2 µM | 23 µM | 30 µM | 25.6 µM | 36.5 µM | 20.8 µM | 30 µM | 20.3 µM |  |  |  |  |  |  |  |  |  | 
Cc1cc(C)nc(NC(N)=NCCc2ccccc2)n1 | 30.6 µM | > 100 µM | 12.4 µM | 21.4 µM | > 100 µM | > 100 µM | 53.1 µM | > 100 µM | 77.2 µM | 89 µM | 8.41 µM | 3.15 µM | 2.9 | 2.97 µM | 9.81 µM | 5.35 µM | 3.16 µM | 5.19 | 7.22 µM | 3.03
C[n+]1c(/C=C\C=C\N2CCCCC2)sc2ccccc21 | 14.1 µM | 15 µM | 0.737 µM | 12.4 µM | > 35.2 µM | > 42.4 µM | > 38.2 µM | > 40.5 µM | 17.6 µM | 3.07 µM | 0.451 µM | 0.291 µM | 0.166 | 0.691 µM | 5.2 µM | 0.479 µM | 2.26 µM | 0.299 | 3.48 µM | 0.413
